# Assay results taken from ChEMBL document CHEMBL4808184, “Discovery and Optimization of DNA Gyrase and Topoisomerase IV Inhibitors with Potent Activity against Fluoroquinolone-Resistant Gram-Positive Bacteria” (J Med Chem, 2021).
# Experiments:
# physchem [1] = conditions: octanol/water, pH 7.4
# K562 = test: cells; conditions: Homo sapiens, K562, 72 h
# HepG2 = test: cells; conditions: Homo sapiens, HepG2, 72 h
# physchem [2] = test: physchem
# Staphylococcus aureus [3] = test: microbe, parasite or virus in culture; conditions: ATCC 49951
# in vivo [4] = conditions: rat, po, 5 mg/kg
# in vivo [5] = conditions: rat, 5 mg/kg
# in vitro [6] = conditions: CD1, mouse, plasma
# in vitro [7] = conditions: human, plasma
# in vitro [8] = conditions: Sprague-Dawley, rat, plasma
# in vivo [9] = conditions: rat, po, 5 mg/kg; remark: listed apart in the source
# in vivo [10] = conditions: rat, po, 5 mg/kg; remark: listed apart in the source
# in vivo [11] = conditions: rat, iv
# Staphylococcus aureus [12] = test: microbe, parasite or virus in culture; conditions: ATCC 49951; remark: listed apart in the source
Structure (SMILES),logD (physchem [1]),pKa (physchem [2]),MIC (Staphylococcus aureus [3]) [µg/mL],MIC (Staphylococcus aureus [12]) [µg/mL],also measured
Cc1c(N2CC3CC3(N)C2)c(F)cc2c(CN)cc(=O)n(C3CC3)c12 (centres undefined),1.1,7.6,0.125,–,EC50 (K562): 40 µM; EC50 (HepG2): 82 µM
Cc1c(N2CCC(C3(N)CC3)C2)c(F)cc2cc(C(=O)O)c(=O)n(C3CC3)c12 (centres undefined),-0.97,5.2,1,0.06,"Tmax at 24 h (in vivo [4]): 1 h; Vd at 24 h (in vivo [5]): 0.69 L/kg; EC50 (K562): > 100 µM; fraction unbound at 4 h, 10 µM (in vitro [6]): 0.48; fraction unbound at 4 h, 10 µM (in vitro [7]): 0.22; EC50 (HepG2): > 100 µM; fraction unbound at 4 h, 10 µM (in vitro [8]): 0.25; AUC(0-inf) at 24 h (in vivo [9]): 7.62 µM·h; Cmax at 24 h (in vivo [10]): 2000 nM; half-life at 24 h (in vivo [11]): 1.32 h"
C[C@H]1COc2c(N3C[C@@H]4CCC[C@H](N)[C@H]4C3)c(F)cc3cc(C(=O)O)c(=O)n1c23,-1.03,5.2,0.5,0.06,–
C[C@H]1COc2c(N3CC[C@@H](C4(N)CC4)C3)ccc3cc(C(=O)O)c(=O)n1c23,–,–,4,–,–
Cc1c(N2CC[C@@H](C3(N)CC3)C2)c(F)cc2cc(Cc3n[nH]c(=O)o3)c(=O)n(C3CC3)c12,0.87,8.8,32,32,–
C[C@H]1COc2c(N3CC[C@@H](C4(N)CC4)C3)c(F)c(F)c3cc(C(=O)O)c(=O)n1c23,-0.85,–,1,0.06,–
C[C@H]1COc2c(N3C[C@@H]4CCCN[C@@H]4C3)c(F)cc3cc(C(=O)O)c(=O)n1c23,-1.46,5,32,1,–
C[C@H]1COc2c(N3CC[C@@H](C4(N)CC4)C3)cc(F)c3cc(C(=O)O)c(=O)n1c23,-0.4,–,2,0.25,–
Cc1c(N2CCC(C3(N)CC3)C2)c(F)cc2c(-c3cc(O)no3)cc(=O)n(C3CC3)c12 (centres undefined),0.29,4.7,2,1,–
C[C@H]1COc2c(N3C[C@H]4[C@H](C3)OCC[C@@H]4N)c(F)cc3cc(C(=O)O)c(=O)n1c23,-1.72,4.8,1,≤ 0.03,–
C[C@H]1COc2c(N3CC[C@@H](C4(N)CC4)C3)c(F)c(Cl)c3cc(C(=O)O)c(=O)n1c23,-0.46,–,0.5,≤ 0.03,–
C[C@H]1CCc2c(N3CC[C@@H](C4(N)CC4)C3)c(F)cc3cc(C(=O)O)c(=O)n1c23,-0.27,–,1,0.06,–
C[C@H]1COc2c(N3CC[C@@H](C4(N)CCC4)C3)c(F)cc3cc(C(=O)O)c(=O)n1c23,-1.42,4.9,2,0.125,–
Cc1c(N2CCC(C3(N)CC3)C2)c(F)cc2c(Cc3noc(=O)[nH]3)cc(=O)n(C3CC3)c12 (centres undefined),-0.74,5.1,32,4,–
C[C@H]1COc2c(N3CC[C@H](N)C3)c(F)cc3cc(C(=O)O)c(=O)n1c23,< -2,4.8,> 32,2,–
C[C@H]1COc2c(N3CCN(C)CC3)c(F)cc3cc(C(=O)O)c(=O)n1c23,-1.99,4.5,> 32,16,–
Cc1c(N2CC[C@@H](C3(N)CC3)C2)c(F)cc2cc(C#N)c(=O)n(C3CC3)c12,1.19,8.4,0.06,0.06,–
Cc1c(N2CC[C@@H]([C@H](C)N)C2)c(F)cc2cc(O)c(=O)n(C3CC3)c12,–,8.2,0.5,–,EC50 (K562): 65 µM; EC50 (HepG2): 74 µM
C[C@H]1COc2c(N3CC[C@@H](C4(N)CC4)C3)c(F)c(C#N)c3cc(C(=O)O)c(=O)n1c23,-1.86,–,1,0.125,–
Cc1c(N2CCC(C3(N)CC3)C2)c(F)cc2c(Cc3noc(=S)[nH]3)cc(=O)n(C3CC3)c12 (centres undefined),-0.3,2.5,8,8,–
Cc1c(N2CCC(C3(N)CC3)C2)c(F)cc2c(-c3noc(=S)[nH]3)cc(=O)n(C3CC3)c12 (centres undefined),–,2,4,4,–
C[C@H]1COc2c(N3CC[C@@H](C4(N)CC4)C3)c(Cl)cc3cc(C(=O)O)c(=O)n1c23,-1.12,–,32,2,–
Cc1c(N2CC[C@@H](C3(N)CC3)C2)c(F)cc2cc(-c3nnco3)c(=O)n(C3CC3)c12,–,8.3,0.125,0.125,–
COc1cc2cc(C(=O)O)c(=O)n3c2c(c1N1CC[C@@H](C2(N)CC2)C1)OC[C@@H]3C,-1.22,–,> 32,32,–

Structure (SMILES),logD (physchem [1]),pKa (physchem [2]),MIC (Staphylococcus aureus [3]) [µg/mL],MIC (Staphylococcus aureus [12]) [µg/mL],also measured
Cc1c(N2CC[C@@H](C3(N)CC3)C2)c(F)cc2cc(-c3n[nH]c(=O)o3)c(=O)n(C3CC3)c12,–,7.2,0.06,0.125,–
C[C@H]1COc2c(N3CC[C@@H](C4(N)CC4)C3)cc(Cl)c3cc(C(=O)O)c(=O)n1c23,–,–,1,–,–
C[C@H]1Cc2c(N3CC[C@@H](C4(N)CC4)C3)c(F)cc3cc(C(=O)O)c(=O)n1c23,-0.51,–,8,0.25,–
Cc1c(N2CCC(C3(N)CC3)C2)c(F)cc2c(Cc3cc(O)no3)cc(=O)n(C3CC3)c12 (centres undefined),-0.9,3.9,8,8,–
C[C@H]1COc2c(N3CC[C@@H](C4(N)CC4)C3)cc(C#N)c3cc(C(=O)O)c(=O)n1c23,-0.55,–,2,0.25,–
C[C@H]1COc2c(N3CC(CN)C4(CCC4)C3)c(F)cc3cc(C(=O)O)c(=O)n1c23 (some centres undefined),-0.66,5.2,2,0.125,–
C[C@H]1COc2c(N3CC[C@H](O)C3)c(F)cc3cc(C(=O)O)c(=O)n1c23,-0.46,5.2,> 32,0.5,–
C[C@H]1CCOc2c(N3CC[C@@H](C4(N)CC4)C3)c(F)cc3cc(C(=O)O)c(=O)n1c23,0.01,–,8,0.25,–
Cc1c(N2CC[C@@H](C3(N)CC3)C2)c(F)cc2cc(C(N)=O)c(=O)n(C3CC3)c12,–,8.4,1,0.25,–
Cc1c(N2CCC(C3(N)CC3)C2)c(F)cc2c(-c3n[nH]c(=O)o3)cc(=O)n(C3CC3)c12 (centres undefined),–,6.4,1,0.5,–
C[C@@H]1COc2c(N3CC[C@@H](C4(N)CC4)C3)c(F)cc3cc(C(=O)O)c(=O)n1c23,-0.92,–,> 32,16,–
C[C@H]1COc2c(N3CC[C@@H](C4(N)CC4)C3)c(C#N)cc3cc(C(=O)O)c(=O)n1c23,-1.77,–,4,0.25,–
Cc1c(N2CC[C@@H](C3(N)CC3)C2)c(F)cc2cc(-c3noc(=O)[nH]3)c(=O)n(C3CC3)c12,-0.32,5.4,0.125,0.125,–
Cc1c(N2CC[C@@H](C3(N)CC3)C2)c(F)cc2cc(-c3ncon3)c(=O)n(C3CC3)c12,1.46,8.4,0.5,0.25,–
C[C@H]1COc2c(N3CCC(=C(Cl)CN)CC3)c(F)cc3cc(C(=O)O)c(=O)n1c23,-0.39,–,> 32,4,–
C[C@H]1COc2c(N3CC[C@@H](C4(N)CC4)C3)c(F)c(N)c3cc(C(=O)O)c(=O)n1c23,-0.97,–,8,0.5,–
"C[C@H]1COc2c(N3CC4C[C@@H](OC(F)F)C[C@@H](N)[C@H]4C3)c(F)cc3cc(C(=O)O)c(=O)n1c23 (single isomer, unassigned)",-0.4,5.2,1,0.06,–
"C[C@H]1COc2c(N3CC4C[C@H](F)C[C@@H](N)[C@H]4C3)c(F)cc3cc(C(=O)O)c(=O)n1c23 (single isomer, unassigned)",-1.04,5.07,0.06,≤ 0.03,–
"CO[C@@H]1CC2CN(c3c(F)cc4cc(C(=O)O)c(=O)n5c4c3OC[C@@H]5C)C[C@@H]2[C@H](N)C1 (single isomer, unassigned)",-1.5,5.2,0.25,≤ 0.03,–
"C[C@H]1COc2c(N3CC4OCC[C@@H](N)[C@H]4C3)c(F)cc3cc(C(=O)O)c(=O)n1c23 (single isomer, unassigned)",-1.66,5.2,1,0.125,–
"CO[C@@H]1CC[C@@H](N)[C@H]2CN(c3c(F)cc4cc(C(=O)O)c(=O)n5c4c3OC[C@@H]5C)CC12 (single isomer, unassigned)",-1.28,4.9,0.25,≤ 0.03,–
"C[C@H]1COc2c(N3CC4[C@H](C3)[C@H](N)CCC4(F)F)c(F)cc3cc(C(=O)O)c(=O)n1c23 (single isomer, unassigned)",-0.78,5.1,0.125,≤ 0.03,–
"C[C@H]1COc2c(N3CC4CCC[C@@H](N)[C@H]4C3)c(F)cc3cc(C(=O)O)c(=O)n1c23 (single isomer, unassigned)",-0.68,5.2,0.25,≤ 0.03,–
COc1c(N2C[C@@H]3CCCN[C@@H]3C2)c(F)cc2c(=O)c(C(=O)O)cn(C3CC3)c12 [MOXIFLOXACIN],–,6.7,4,0.06,EC50 (K562): > 100 µM; EC50 (HepG2): > 100 µM
